Results on 1 cell line are retold here after the supplement of paper PMC10307832.

What all share (experiment): relative viability (nuclei count vs DMSO), 5 days (fraction); higher = more cells survive
Compound in assay [1]: Cc1ccc(-n2nc(C(C)(C)C)cc2NC(=O)Nc2ccc(OCCN3CCOCC3)c3ccccc23)cc1 [Doramapimod] + C[C@@H](Oc1cc(-c2cnn(C3CCNCC3)c2)cnc1N)c1c(Cl)ccc(F)c1Cl [Crizotinib] (partner 1 µM)
A digest of the protocol:
(§1)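 Values are medians from duplicate plates. Each reflects relative viability, defined as the nuclei count of treated wells over that of vehicle wells. Lung cancer cell lines in 1536-well plates were pin-tool dosed one day after seeding with one drug alone or with a fixed anchor-drug dose plus five library-drug doses (not always all listed) in √10 steps, then fixed, stained and imaged at 4× after 5 days.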

Compound in assay [2]: C1=CC=C2C(=C1)C=CC(=C2SSC3=C(C=CC4=CC=CC=C43)O)O [IPA-3] + Cc1nc(NC(=O)N2CCC[C@H]2C(N)=O)sc1-c1ccnc(C(C)(C)C(F)(F)F)c1 [Alpelisib] (partner 2 µM)
A digest of the protocol:
as §1

Compound in assay [3]: Cc1ccc(-n2nc(C(C)(C)C)cc2NC(=O)Nc2ccc(OCCN3CCOCC3)c3ccccc23)cc1 [Doramapimod] + Nc1nc2[nH]cc(CCc3ccc(C(=O)N[C@@H](CCC(=O)O)C(=O)O)cc3)c2c(=O)[nH]1 [Pemetrexed] (partner 0.2 µM)
A digest of the protocol:
as §1

Compound in assay [4]: Cn1c(Nc2ccc(C(F)(F)F)cc2)nc2cc(Oc3ccnc(-c4ncc(C(F)(F)F)[nH]4)c3)ccc21 [RAF265] + CC1(C)CCC(c2ccc(Cl)cc2)=C(CN2CCN(c3ccc(C(=O)NS(=O)(=O)c4ccc(N[C@H](CCN5CCOCC5)CSc5ccccc5)c(S(=O)(=O)C(F)(F)F)c4)cc3)CC2)C1 [Navitoclax] (partner 0.5 µM)
Put shortly: as §1

Turning to UMC-11, the relative viability in assay [1] (first compound 0.02 µM) is 0.58; in assay [1] (first compound 0.06325 µM) it was 0.623; in assay [1] (first compound 0.2 µM), 0.608; in assay [1] (first compound 0.6325 µM), 0.609; in assay [1] (first compound 2 µM), 0.567; in assay [2] (first compound 0.2 µM), 1.22. In addition, the relative viability in assay [2] (first compound 0.6325 µM) came out at 0.962; in assay [2] (first compound 2 µM), 1.07; in assay [2] (first compound 6.325 µM) it was 1.01; in assay [2] (first compound 20 µM), 1.07; in assay [3] (first compound 0.02 µM), 0.711; in assay [3] (first compound 0.06325 µM), 0.739. Besides, the relative viability in assay [3] (first compound 0.2 µM) came out at 0.75; in assay [3] (first compound 0.6325 µM) it was 0.708; in assay [3] (first compound 2 µM) it was 0.743; in assay [4] (first compound 0.01 µM), 0.316; in assay [4] (first compound 0.03162 µM) it was 0.326; in assay [4] (first compound 0.1 µM), 0.299. The relative viability in assay [4] (first compound 0.3162 µM) was 0.322; in assay [4] (first compound 1 µM), 0.327.
